Assay results: paper PMC12386367, “Importin α3 Is Tolerant to Nuclear Localization Signal Chirality” (International Journal of Molecular Sciences, 2025)
Non-standard residues stand in square brackets, D forms with d. Residues, ends and D or L forms follow the SMILES beside them.

What was measured:
∆Impα3 [1] = target: T1, ∆Impα3 (Homo sapiens, UniProt O00629); test: Biolayer interferometry (BLI) binding to ∆Impα3; settings: BLItz, ∆Impα3 immobilized via His-tag (0.25 μM), peptide 1–10 μM, 10 × kinetics buffer, 25 °C, error from pseudo-first order fit, at least two repeats, read-out: kon
T1 construct: IBB-depleted species of Impα3 (residues 64–521 of the intact protein); made in house
T1 sequence (O00629 64-521): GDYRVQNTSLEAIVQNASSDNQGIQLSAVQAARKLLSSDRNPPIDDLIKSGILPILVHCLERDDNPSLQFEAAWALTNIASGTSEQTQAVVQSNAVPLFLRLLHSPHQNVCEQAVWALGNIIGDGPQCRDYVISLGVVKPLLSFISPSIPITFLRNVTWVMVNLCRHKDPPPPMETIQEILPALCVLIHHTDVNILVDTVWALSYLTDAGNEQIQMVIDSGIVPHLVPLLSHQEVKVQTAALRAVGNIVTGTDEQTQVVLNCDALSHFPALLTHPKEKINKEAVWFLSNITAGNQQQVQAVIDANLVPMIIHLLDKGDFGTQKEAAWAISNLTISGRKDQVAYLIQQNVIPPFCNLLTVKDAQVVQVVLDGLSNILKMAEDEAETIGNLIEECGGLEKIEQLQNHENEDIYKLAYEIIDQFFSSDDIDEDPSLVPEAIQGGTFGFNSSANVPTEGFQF
Method: (§1) The association (kon) and dissociation (koff) rate constants of the binding of D-NLS peptides to either Impα3 or ∆Impα3 were determined by using a BLItz system (ForteBio, Pall, Barcelona, Spain). The buffer used in the experiments was that recommended by the manufacturer. […] The peptide concentrations were in a range from 1 to 10 μM during the association step. The general scheme of the protein association/dissociation reactions in the BLItz system for the D-NLS peptides was as follows: 30 s of initial baseline acquisition with the 10 × kinetics buffer (provided by the manufacturer); 120 s of loading either Impα3 and ∆Impα3 into the biosensor; 30 s of baseline acquisition with the 10 × kinetics buffer; 120 s of association of each peptide to the biosensor (which had been previously loaded with the importin species); and 120 s of monitoring of the dissociation of each peptide from the biosensor. All experiments were carried out at 25 °C.
(§2) Fittings of the BLI sensorgrams was carried out by using KaleidaGraph, as previously described. The interferometry response during the association step, R(t) (measured in response units, RU), and the binding rate, dR(t)/dt, could be used to evaluate the kinetics of the formation of the complex between Impα3/∆Impα3 and each D-NLS, according to:(2) dR/dt=konD-NLSRmax−Rt−koffR(t) where Rmax is proportional to the total concentration of biosensor-bound importin species; and [D-NLS] represents the concentration of the corresponding D-NLS peptide.
(§3) In Equation (2), R(t) is given by:(3) Rt= Req−Reqe^(−kobs t−t0) where Req is the steady-state (or equilibrium) response obtained at infinite time, when dR(t)/dt = 0, and t0 = 180 s is the time at which the association step between biosensor-immobilized Impα3/∆Impα3 and D-NLS in the solution started. We fitted the experimentally obtained R(t) under any condition as:(4) Rt= Req−Reqe^−kobs t−t0−R’eq(t−t0) where R^′eq was included to consider the lineal drift observed at longer times.
(§4) The dissociation process was always fitted to a single exponential, with R(t) given by:(6) Rt=R1 e^(−kofft−t0)−R^″eq(t−t0) where t0 = 300 is the time at which the dissociation of the D-NLS from the biosensor-bound Impα3/∆Impα3 started in our experimental set-up, R1 is the response level when dissociation starts, and the parameter R^″eq considers the linear drift observed at longer times.
(§5) The experiments were repeated at least twice for each peptide with each importin species.

[2] = Translational diffusion NMR (DOSY) of NLS peptides; type: physicochemical; settings: ~100 μM peptide, 50 mM deuterated Tris pH 7.2, 100% D2O, 10 °C
From the text: For the four peptides, we measured the experimental value of D for dioxane ranging from (1.2 ± 0.1) × 10^−5 to (1.05 ± 0.02) × 10^−5 cm^2 s^−1 in each solution containing the corresponding peptide; we assumed a hydrodynamic radius of 2.12 Å for dioxane (Table 1) under any condition. […] Furthermore, the values of D were similar for the D- and L-peptides, and the latter were already being described as disordered. Thus, we can conclude that the four D-peptides were monomeric and disordered, like the L-form counterparts, and, then, there was no difference in the hydrodynamic properties of the peptides by changing the enantiomeric nature of the residues.
The NMR spectra were acquired at 10 °C on a Bruker Avance III spectrometer (Bruker GmbH, Mannheim, Germany), equipped with a triple-resonance probe and z-pulse field gradients. All NMR experiments with D-NLS peptides were carried out in 50 mM deuterated Tris buffer (not corrected for isotope effects), pH 7.2. Spectra were calibrated with TSP, by considering pH-dependent changes in its chemical shifts; probe temperature was calibrated with pure methanol.
The typical D-NLS peptide concentrations in DOSY experiments were ~100 μM, and 128 scans were acquired, in which the gradient strength was varied linearly in sixteen steps, between 2 and 95% of the total power of the gradient coil. Measurements of the translational self-diffusion coefficient, D, were performed with the pulsed-gradient spin-echo sequence in the presence of 100% D2O. Details on the experimental conditions and fitting of the resulting curves have been described elsewhere. Gradient strength was calibrated by using the value of D for the residual proton water signal in a sample containing 100% D2O, in a 5 mm tube [23]. Gradient length was 2.5 ms; the time between the two pulse gradients in the sequence was 250 ms; and the recovery delay between the bipolar gradients was 100 μs. The signals from methyl groups between 0.8 and 1.0 ppm were used for peak integration, for all the D-NLS peptides. A final concentration of 1% of dioxane, which was assumed to have a hydrodynamic radius Rh of 2.12 Å [23], was added to the solution of each peptide.

∆Impα3 [3] = target: T1, ∆Impα3; test: Isothermal titration calorimetry (ITC) with ∆Impα3; type: binding; settings: ∆Impα3, 50 mM Tris pH 8.0, 25 °C
Method: (§6) Calorimetric titrations for testing the interaction of D-NLS peptides with either Impα3 or ΔImpα3 were carried out in an VP-ITC instrument (Microcal, Northhamptom, MA, USA). The importin species were loaded into the cell calorimeter and the corresponding D-NLS peptide in the syringe in Tris buffer 50 mM, pH 8.0. All experiments were carried out at 25 °C.
(§7) These twenty-nine ITC experiments involved sequential injections of microliter amounts (10 µL) of a stock solution of D-NLS peptide (in a concentration range of 150–200 µM) into the calorimetric cell (1.4 mL); the cell initially contained protein solution (15 µM for either Impα3 or ΔImpα3 in protomer units). To correct for the heat evolved due to the dilution effect for adding the ligand (peptide) solution to the calorimetric cell, an independent experiment was performed, in which the same peptide solution was injected into the calorimetric cell loaded with buffer. After correction for the dilution heat, the isotherm was fitted to a binding model that assumed the existence of a single set of binding sites, by using the software v1.41 provided by the manufacturer.

Impα3 [4] = target: T2, Impα3 (Homo sapiens, UniProt O00629); test: Biolayer interferometry (BLI) binding to Impα3; settings: peptide 1–10 μM, 25 °C
T2 construct: Human importin α3 isoform (residues 1–521); made in house
T2 sequence (O00629 1-521): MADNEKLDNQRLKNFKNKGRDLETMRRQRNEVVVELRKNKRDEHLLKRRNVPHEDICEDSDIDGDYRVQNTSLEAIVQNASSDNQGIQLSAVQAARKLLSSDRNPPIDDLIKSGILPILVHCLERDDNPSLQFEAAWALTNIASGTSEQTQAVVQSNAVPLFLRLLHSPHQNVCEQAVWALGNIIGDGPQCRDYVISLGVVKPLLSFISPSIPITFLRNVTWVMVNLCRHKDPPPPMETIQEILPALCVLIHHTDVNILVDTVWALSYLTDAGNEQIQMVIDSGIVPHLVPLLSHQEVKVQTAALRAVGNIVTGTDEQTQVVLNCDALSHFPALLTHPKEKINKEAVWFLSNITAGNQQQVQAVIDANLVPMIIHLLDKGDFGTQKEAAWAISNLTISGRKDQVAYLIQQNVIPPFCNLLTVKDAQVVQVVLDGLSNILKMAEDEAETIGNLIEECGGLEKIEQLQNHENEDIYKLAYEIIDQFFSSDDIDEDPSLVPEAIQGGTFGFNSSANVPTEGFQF
Method: as §1, §2, §3, §4, §5

Impα3 [5] = target: T2, Impα3; test: Isothermal titration calorimetry (ITC) with Impα3; type: binding; settings: Impα3, 50 mM Tris pH 8.0, 25 °C
Method: as §6, §7

[6] = sequence synthesized in reverse order; ref [38]; cited from earlier work
From the text: A few additional conclusions can be drawn from our results, in the context of their relevance for understanding the importance of importin in the regulation of the nucleocytoplasmic transport of cargo proteins. Although we cannot rule out that the intrinsic high flexibility of Impα3 could be involved in its lack of selectivity towards different stereoisomers, we believe the following: (i) the intrinsic disorder of the isolated NLS peptides (derived from the cargos), as shown by NMR (Figure 1 and Figure 2), and (ii) the fact that the peptides remained disordered upon binding to the importin spe ...

∆Impα3 [7] = target: T1, ∆Impα3; settings: literature value for L-NLS counterpart, ref [5],[6],[7], read-out: Kd (ITC) (L-NLS Peptide); cited from earlier work
From the text: (§8) Table 3 Kinetic and thermodynamic parameters of the binding reaction of D-NLS peptides to ∆Impα3 ^a. | column: Kd (μM) (ITC/Fluorescence) (L-NLS Peptide) ^c || We also used ITC to determine the thermodynamic binding parameters in the association of each of the peptides to both importin species (Figure 4). […] For D-NLS-NUPR1L, the values of enthalpy, ∆H, were −2.5 ± 0.2 and −4.5 ± 0.7 kcal mol^−1 for the binding to Impα3 and ∆Impα3, respectively. On the other hand, the values previously ...

[8] = L-NLS counterparts, literature values, ref [5],[6],[7], cited from earlier work
From the text: Table 1 Hydrodynamic properties of the D-NLS peptides ^a. | column: D (cm^2 s^−1) × 10^6 (Rh, Å) (L-NLS) ^d

Impα3 [9] = target: T2, Impα3; settings: literature value for L-NLS counterpart, ref [5],[6],[7], read-out: Kd (ITC) (L-NLS Peptide); cited from earlier work
From the text: as §8, with “Table 2” for “Table 3”, “to Impα3” for “to ∆Impα3”

For `CC(=O)N[C@H](CCCNC(=N)N)C(=O)N[C@@H](C(=O)N[C@H](CCCNC(=N)N)C(=O)N[C@H](CCCNC(=N)N)C(=O)N[C@H](CCC(=O)O)C(=O)N[C@H](CCC(N)=O)C(=O)N[C@H](C)C(=O)N[C@H](CC(C)C)C(=O)N[C@H](CCCNC(=N)N)C(=O)N[C@@H](C(=O)N[C@H](CC(N)=O)C(=O)N[C@H](Cc1c[nH]c2ccccc12)C(=O)N1CCC[C@@H]1C(=O)N[C@H](C)C(=O)N1CCC[C@@H]1C(=O)NCC(=O)NCC(=O)N[C@H](Cc1c[nH]cn1)C(=O)N[C@H](CCC(=O)O)C(=O)N[C@H](CCCNC(=N)N)C(=O)N[C@H](CCCCN)C(=O)N[C@@H](C(=O)N[C@H](C)C(=O)N[C@H](CCC(N)=O)C(N)=O)C(C)C)[C@H](C)O)[C@H](C)O` [D-NLS-NUPR1L] (Ac-[dR][dT][dR][dR][dE][dQ][dA][dL][dR][dT][dN][dW][dP][dA][dP]GG[dH][dE][dR][dK][dV][dA][dQ]-NH2), the kon (∆Impα3 [1]) was 51200 ± 700 M⁻¹ s⁻¹, the “Diffusion coefficient D” value [2] was 2.0 ± 0.3 cm^2 s^−1 × 10^6 and the “enthalpy ∆H” value (∆Impα3 [3]) was -4.5 ± 0.7 kcal/mol. The kon (Impα3 [4]; BLItz, Impα3 immobilized via His-tag (0.25 μM), 10 × kinetics buffer, error from pseudo-first order fit, at least two repeats, read-out: kon) was 68000 ± 7000 M⁻¹ s⁻¹, the koff (Impα3 [4]; Impα3 immobilized via His-tag, error from pseudo-first order fit (Equation 5)) was 0.069 ± 0.04 s⁻¹ and the “enthalpy ∆H” value (Impα3 [5]) was -2.5 ± 0.2 kcal/mol.

In the case of DLKVRKAA, the “Binding, dependence on stereochemistry” value [6] is listed as “binding insensitive to L-/D-stereochemistry has been observed”.

For “L-NLS-NUPR1: wild-type isolated NLS region of NUPR1, comprising residues 54 to 74 (TNRPSPGGHERKLVTKLQNSE; UniProt O60356 54-74, looked up, fragment)”, the Kd (∆Impα3 [7]) is given as 950 nM, the “Hydrodynamic radius Rh (L-NLS)” value ([8]; estimated from Rh of dioxane) is given as 11 ± 1 Å and the “Diffusion coefficient D (L-NLS)” value [8] is given as 1.85 ± 0.04 10^-6 cm^2 s^-1. The Kd (Impα3 [9]) was 1700 nM.
